Test results from patent US8193377B2, “(−)-epigallocatechin gallate derivatives for inhibiting proteasome” (The Hong Kong Polytechnic University, priority 2004, dated 2012).
Like-named read-outs stand apart in the source and are kept apart here.

What was measured:
[1] = target: T1, purified rabbit 20s proteasome (Oryctolagus cuniculus, UniProt G1T4Q9); test: Inhibition of chymotrypsin-like activity of purified 20S proteasome; assay type: biochemical
T1 construct: purchased Boston Biochem (Cambridge, Mass.)
T1 sequence (G1T4Q9 1-263): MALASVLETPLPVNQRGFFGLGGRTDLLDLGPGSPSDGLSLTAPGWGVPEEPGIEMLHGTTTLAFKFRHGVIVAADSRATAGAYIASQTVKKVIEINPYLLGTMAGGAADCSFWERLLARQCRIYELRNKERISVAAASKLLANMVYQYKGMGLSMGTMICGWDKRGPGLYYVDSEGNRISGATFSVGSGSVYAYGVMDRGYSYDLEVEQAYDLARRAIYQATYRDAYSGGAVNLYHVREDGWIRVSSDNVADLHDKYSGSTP
Experimental: Measurement of the chyrnotrypsin-like activity of the 20s proteasome was performed by incubating 0.5 μg of purified rabbit 20s proteasome with 40 μM fluorogenic peptide substrate, Suc-Leu-Leu-Val-Tyr-AMC, with or without various concentrations of natural and synthetic tea polyphenols as described previously (Nam S et. al.).
In order to test this hypothesis, proteasome activity was tested both in vitro and in intact Jurkat T cells with either 1 or (−)-EGCG (as a positive control). First, 1 and commercial (−)-EGCG were dissolved in DMSO and their effects on the chymotrypsin-like activity of purified 20S proteasomes were measured. […] In contrast, (−)-EGCG at 10 μM inhibited 80-90% of the proteasomal chymotrypsin-like activity. Therefore, as predicted, 1 outside of a cellular system is not a proteasome inhibitor.
Up to 25 μM of all protected and unprotected compounds were incubated with a purified 20s proteasome and a fluorogenic substrate for chyrnotrypsin activity for 30 min. The half-maximal inhibitory concentration or IC50 was then determined. […] This is consistent with the results above.

[2] = target: 20S prokaryotic proteasome (UniProt Q9P992); test: Table 2: effects of tea polyphenols on 20S prokaryotic proteasome activities; assay type: biochemical; details: Table 2, This work
Experimental: To further examine the effects of B-ring —OH group deletion on proteasome-inhibitory and cell death-inducing abilities, we synthesized several novel EGCG analogs with eliminated —OH groups on the B-ring as well as their putative prodrugs, the peracetate-protected counterparts. By using a purified 20S proteasome and a chymotrypsin-like fluorogenic substrate, the proteasome-inhibitory effects of the following unprotected polyphenol analogs are determined: […]

[3] = target: T2, proteasomal chymotrypsin-like activity in Jurkat T cells (Homo sapiens, UniProt P28074); test: Proteasomal chymotrypsin-like activity in intact Jurkat T cells / their lysates; assay type: cell-based; details: 24 h, Jurkat T
T2 construct: measurement of the proteasomal chymotrypsin-like activity in the prepared lysates; endogenous in cells; host or cells: Jurkat T cells (human leukemia)
T2 sequence (P28074 60-263): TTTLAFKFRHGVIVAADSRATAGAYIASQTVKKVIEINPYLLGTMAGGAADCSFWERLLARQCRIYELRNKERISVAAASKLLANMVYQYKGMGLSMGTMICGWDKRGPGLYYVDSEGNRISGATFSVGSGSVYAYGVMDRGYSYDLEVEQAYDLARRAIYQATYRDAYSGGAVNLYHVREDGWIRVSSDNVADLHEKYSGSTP
Experimental: VA-13 or WI-38 cells were grown in 24 well plates (2 ml/well) to 70-80% confluency, followed by 24 h treatment with […] (−)-EGCG, 2, or 2a. […] Suc-Leu-Leu-Val-Tyr-AMC substrate was then added for 2.5 h at 37° C. and the chyrnotrypsin-like activity was measured as described above. Alternatively, cells were treated with each compound at 25 μM for 4 or 24 h, and harvested and lysed. Suc-Leu-Leu-Val-Tyr-AMC (40 μM) was then incubated with the prepared cell lysates for 2.5 h and the chymotrypsin-like activity was measured as described above.
If 1 converts to (−)-EGCG inside the cells, proteasome inhibition in vivo should be detected. To examine this possibility, human Jurkat cells was treated with 25 μM of 1 or (−)-EGCG for 12 or 24 h, followed by measurement of proteasome activity by using a chymotrypsin-like specific fluorogenic substrate in intact cells (FIG. 6a) or Western blot for ubiquinated proteins (FIG. 6b). […] To analyze the intracellular level of polyubiquitinated proteins, cells were lysed after 12 hours incubation and subjected to Western blotting. […] It is possible that the amount of EGCG generated from 1, and thus its biological activity inside the cells depends on a combination of factors: the relative permeability of 1 into the cells, the amount of esterase enzymes and the amount of anti-oxidants that may be present in the cells at any time.
To determine whether the unprotected and protected polyphenol analogs could inhibit the proteasomal activity in intact cells, leukemia Jurkat T cells were treated with each compound at 25 μM for 4 and 24 h, followed by collection of cell pellets and measurement of the proteasomal chymotrypsin-like activity in the prepared lysates.

[4] = system: caspase-3 activity in Jurkat T cells; test: Induction of caspase-3 activity (Ac-DEVD-AMC) in Jurkat T cells; assay type: cell-based, human; details: 25 μM, 4 h
Experimental: Cells were treated with each compound at 25 μM for 4 or 24 h, and then harvested and lysed. Ac-DEVD-AMC (40 μM) was added to the cell lysates for 2.5 h and the caspase-3 activity.
To determine if the cell death observed (FIG. 16) was due to the induction of apoptosis, a similar experiment was performed in Jurkat T cells, followed by measurement of caspase-3 activation and PARP cleavage.

[5] = system: phosphorylated Akt (p-Akt); test: Western blot for phosphorylated Akt in Jurkat T cells; assay type: cell-based, human; details: 25 μM, 24 h
Experimental: (−)-EGCG and 1 were incubated with Jurkat T cells for 24 h at 5, 10 and 25 μM, followed by Western blot analysis using a specific antibody to phosphorylated Akt (FIG. 7). […] Actin was used as a loading control.

Jurkat T cells = test: Trypan blue cell death assay in Jurkat T cells; assay type: cell-based, human; details: 10 μM, 24 h
LNCaP cells [6] = test: Apoptotic morphological changes, phase contrast; assay type: cell-based, human; details: 25 μM, 24 h
LNCaP cells [7] = test: Soft agar colony formation assay; assay type: cell-based, human; details: 25 μM once at plating, 21 days
VA-13 cells = test: Nuclear staining (Hoechst) for apoptotic morphology, VA-13; assay type: cell-based, human; details: 25 μM
Experimental: After each drug treatment, both detached and attached VA-13 and WI-38 cells were stained Hoechst 33342 to assess for apoptosis. Briefly, cells were washed 2× in PBS, fixed for 1 h with 70% ethanol at 4° C., washed 3× in PBS, and stained with […] Hoechst for 30 min in the dark at room temperature. Detached cells were plated on a slide and attached cells were visualized on the plate with a fluorescent microscope at 10× or 40× resolution (Zeiss, Germany). Digital Scientific obtained images with AxioVision 4.1 and adjusted using Adobe Photoshop 6.0.
Next, apoptotic nuclear morphology is examined after treatment with natural (−)-EGCG, 2, and 2a (FIG. 12B). […] A comparison among all the protected analogs was then performed using 25 μM for 24 h. […] All of the protected analogs induced apoptosis in transformed (VA-13), but not normal (WI-38) cells (FIGS. 12B and 12C).

YT cells = test: Western blot in non-transformed natural killer YT cells compared with Jurkat T cells; assay type: cell-based, human; details: 25 μM, 24 h
[8] = rats given 56 mg orally; cited from earlier work
[9] = Stability test in RPMI 1640 culture medium, HPLC; details: 0.1 mM in RPMI, 37° C., pH around 8
Experimental: The stability of 1 with (−)-EGCG in a culture medium (RMPI) is compared, which mimics the body fluid with a pH value around 8. (−)-EGCG or 1 at 0.1 mM was incubated in 1 mL RMPI at 37° C. at indicated times. At different time points, the medium was analyzed by HPLC for the amount of tested compound remaining.

[10] = Suc-Leu-Leu-Val-Tyr-AMC, 2 h incubation, Table 1, read-out: IC50 (μM), unprotected

Sequence of 20S prokaryotic proteasome (Q9P992 whole entry): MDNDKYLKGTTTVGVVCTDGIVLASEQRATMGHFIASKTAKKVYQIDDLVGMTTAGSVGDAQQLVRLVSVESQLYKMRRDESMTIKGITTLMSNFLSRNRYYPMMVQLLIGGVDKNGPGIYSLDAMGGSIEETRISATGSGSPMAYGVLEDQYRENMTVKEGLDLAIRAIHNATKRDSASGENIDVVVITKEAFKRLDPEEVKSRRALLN

SMILES: O=C(O[C@@H]1Cc2c(O)cc(O)cc2O[C@@H]1c1ccc(O)cc1)c1cc(O)c(O)c(O)c1 [Compound 6, (−)-(2R,3R)-5,7-dihydroxy-2-(4-hydroxyphenyl)chroman-3-yl 3,4,5-trihydroxybenzoate]
- IC50 [1, 10]: 2.69 µM
- IC50 [2]: 2690 nM
- inhibition of chymotrypsin-like activity in lysates of treated cells ([3]; 25 μM): 30%
- increase in caspase-3 activity [4]: 4 fold

SMILES: O=C(O[C@@H]1Cc2c(O)cc(O)cc2O[C@@H]1c1cc(O)c(O)c(O)c1)c1cc(O)c(O)c(O)c1 [(−)-EGCG, (−)-epigallocatechin-3-gallate, reference compound]
- inhibition at 10 µM ([1]; 10 μM, purified 20S proteasome, read-out: inhibition of proteasomal chymotrypsin-like activity): 80 to 90%
- IC50 [1, 10]: 0.3 µM
- IC50 ([1]; up to 25 μM, 30 min incubation, read-out: IC50): 0.2 µM
- IC50 [2]: 300 nM
- inhibition at 25 µM ([3]; Jurkat, read-out: inhibition of proteasome activity in intact cells): 31%
- reduction of p-Akt level (densitometry) [5]: 32%
- cell death (Jurkat T cells): 5%
- apoptotic morphological changes (LNCaP cells [6]): enlarged, flattened cells
- colony formation in soft agar (LNCaP cells [7]): significant decrease in colony formation
- apoptotic nuclear morphology (VA-13 cells; 24 h): little or no apoptosis
- apoptotic nuclear morphology (VA-13 cells; 36 h): did initiate apoptosis
- apoptosis (PARP cleavage), Jurkat T versus YT cells (YT cells): only Jurkat cells underwent apoptosis
- fraction of (−)-EGCG absorbed [8]: 0.012%
- time within which compound degraded in culture medium [9]: ≤ 20 min
